Values after ≈ are worked out from the molar mass of the structure shown.
Tests used:
[1] = tested on: Mycolicibacterium smegmatis; experiment: Antimycobacterial activity against Mycobacterium smegmatis CMCC 93202 after 72 hrs by serial double dilution technique; assay type: functional; conditions: CMCC 93202, 72 h
[2] = tested on: Mycobacterium tuberculosis; experiment: microbe, parasite or virus in culture; assay type: functional; conditions: H37Rv ATCC 27294, 168 h
Description: Antimycobacterial activity against Mycobacterium tuberculosis H37Rv ATCC 27294 after 7 days by serial double dilution technique

[3] = Cytotoxicity against african green monkey Vero cells after 72 hrs by MTT assat; conditions: chlorocebus sabaeus
[4] = tested on: Mycobacterium tuberculosis; experiment: Ratio of compound MIC to 8-OCH3 ciprofloxacin MIC for Mycobacterium tuberculosis H37Rv ATCC 27294; assay type: functional

Row | Compound | MIC [1] [µM] | MIC [2] [µM] | CC50 at 72 h ([3]; Vero cells) [µM] | Ratio [4] | CC50 at 72 h ([3]; vero) [µM]
1 | CCO/N=C1\C(=O)N(CN2CCN(c3c(F)cc4c(=O)c(C(=O)O)cn(C5CC5)c4c3OC)CC2)c2ccccc21 | 2.77 (≈ 1.56 µg/mL) | 0.14 (≈ 0.0789 µg/mL) | 91.5 | – | –
2 | COc1c(N2CCN(CCN3C(=O)/C(=N\O)c4cc(F)ccc43)CC2)c(F)cc2c(=O)c(C(=O)O)cn(C3CC3)c12 | 22.1 (≈ 12.5 µg/mL) | – | – | – | –
3 | CCO/N=C1\C(=O)N(CCN2CCN(c3c(F)cc4c(=O)c(C(=O)O)cn(C5CC5)c4c3OC)CC2)c2ccc(F)cc21 | 1.31 (≈ 0.78 µg/mL) | – | – | – | –
4 | COc1c(N2CCN(CCN3C(=O)/C(=N\NC(N)=O)c4cc(F)ccc43)CC2)c(F)cc2c(=O)c(C(=O)O)cn(C3CC3)c12 | 5.12 (≈ 3.12 µg/mL) | – | – | – | –
5 | NNC(=O)c1ccncc1 [ISONIAZID] | 5.69 (≈ 0.78 µg/mL) | 0.29 (≈ 0.0398 µg/mL) | – | – | –
6 | COc1c(N2CCN(CCN3C(=O)/C(=N\NC(N)=O)c4ccccc43)CC2)c(F)cc2c(=O)c(C(=O)O)cn(C3CC3)c12 | 5.28 (≈ 3.12 µg/mL) | – | – | – | –
7 | CO/N=C1\C(=O)N(CCN2CCN(c3c(F)cc4c(=O)c(C(=O)O)cn(C5CC5)c4c3OC)CC2)c2ccccc21 | 2.77 (≈ 1.56 µg/mL) | 1.14 (≈ 0.642 µg/mL) | 306 | – | –
8 | COc1c(N2CCN(CCN3C(=O)C(=O)c4ccccc43)CC2)c(F)cc2c(=O)c(C(=O)O)cn(C3CC3)c12 | 5.84 (≈ 3.12 µg/mL) | – | – | – | –
9 | COc1c(N2CCN(CN3C(=O)/C(=N\O)c4cc(F)ccc43)CC2)c(F)cc2c(=O)c(C(=O)O)cn(C3CC3)c12 | 1.41 (≈ 0.78 µg/mL) | 0.14 (≈ 0.0775 µg/mL) | 73.8 | – | –
10 | CO/N=C1\C(=O)N(CN2CCN(c3c(F)cc4c(=O)c(C(=O)O)cn(C5CC5)c4c3OC)CC2)c2ccccc21 | 5.68 (≈ 3.12 µg/mL) | 0.15 (≈ 0.0824 µg/mL) | 76.5 | – | –
11 | COc1c(N2CCN(CN3C(=O)/C(=N\O)c4ccccc43)CC2)c(F)cc2c(=O)c(C(=O)O)cn(C3CC3)c12 | 2.92 (≈ 1.56 µg/mL) | 0.15 (≈ 0.0803 µg/mL) | 74.4 | – | –
12 | COc1c(N2CCN(CCN3C(=O)C(=O)c4cc(F)ccc43)CC2)c(F)cc2c(=O)c(C(=O)O)cn(C3CC3)c12 | 2.83 (≈ 1.56 µg/mL) | – | – | – | –
13 | COc1c(N2CCN(CN3C(=O)C(=O)c4ccccc43)CC2)c(F)cc2c(=O)c(C(=O)O)cn(C3CC3)c12 | 24 (≈ 12.5 µg/mL) | 0.15 (≈ 0.0781 µg/mL) | 70.8 | – | –
14 | CCO/N=C1\C(=O)N(CCN2CCN(c3c(F)cc4c(=O)c(C(=O)O)cn(C5CC5)c4c3OC)CC2)c2ccccc21 | 5.41 (≈ 3.12 µg/mL) | – | – | – | –
15 | COc1c(N2CCNCC2)c(F)cc2c(=O)c(C(=O)O)cn(C3CC3)c12 | 0.54 (≈ 0.195 µg/mL) | 0.22 (≈ 0.0795 µg/mL) | 242 | – | –
16 | COc1c(N2CCN(CN3C(=O)/C(=N\NC(N)=O)c4ccccc43)CC2)c(F)cc2c(=O)c(C(=O)O)cn(C3CC3)c12 | 1.35 (≈ 0.78 µg/mL) | 0.14 (≈ 0.0809 µg/mL) | 266 | 1.6 | –
17 | O=C(O)c1cn(C2CC2)c2cc(N3CCNCC3)c(F)cc2c1=O [CIPROFLOXACIN] | 2.36 (≈ 0.782 µg/mL) | 0.97 (≈ 0.321 µg/mL) | – | – | 601
18 | COc1c(N2CCN(CN3C(=O)/C(=N\NC(N)=S)c4ccccc43)CC2)c(F)cc2c(=O)c(C(=O)O)cn(C3CC3)c12 | 2.63 (≈ 1.56 µg/mL) | 0.13 (≈ 0.0772 µg/mL) | 154 | 1.6 | –
19 | CO[C@H]1/C=C/O[C@@]2(C)Oc3c(C)c(O)c4c(O)c(c(/C=N/N5CCN(C)CC5)c(O)c4c3C2=O)NC(=O)/C(C)=C\C=C\[C@H](C)[C@H](O)[C@@H](C)[C@@H](O)[C@@H](C)[C@H](OC(C)=O)[C@@H]1C [RIFAMPIN] | 3.79 (≈ 3.12 µg/mL) | 0.19 (≈ 0.156 µg/mL) | 180 | – | –
20 | COc1c(N2CCN(CCN3C(=O)/C(=N\O)c4ccccc43)CC2)c(F)cc2c(=O)c(C(=O)O)cn(C3CC3)c12 | 11.4 (≈ 6.25 µg/mL) | – | – | – | –
21 | CO/N=C1\C(=O)N(CN2CCN(c3c(F)cc4c(=O)c(C(=O)O)cn(C5CC5)c4c3OC)CC2)c2ccc(F)cc21 | 2.75 (≈ 1.56 µg/mL) | 0.14 (≈ 0.0795 µg/mL) | 46.8 | 1.6 | –
22 | COc1c(N2CCN(CCN3C(=O)/C(=N\NC(N)=S)c4ccccc43)CC2)c(F)cc2c(=O)c(C(=O)O)cn(C3CC3)c12 | 2.57 (≈ 1.56 µg/mL) | 1.05 (≈ 0.638 µg/mL) | 56.1 | – | –
23 | CCO/N=C1\C(=O)N(CN2CCN(c3c(F)cc4c(=O)c(C(=O)O)cn(C5CC5)c4c3OC)CC2)c2ccc(F)cc21 | 2.68 (≈ 1.56 µg/mL) | 0.55 (≈ 0.32 µg/mL) | 85.8 | – | –
24 | COc1c(N2CCN(CN3C(=O)C(=O)c4cc(F)ccc43)CC2)c(F)cc2c(=O)c(C(=O)O)cn(C3CC3)c12 | 2.9 (≈ 1.56 µg/mL) | 0.074 (≈ 0.0398 µg/mL) | 70.6 | – | –
25 | COc1c(N2CCN(CCN3C(=O)/C(=N\NC(N)=S)c4cc(F)ccc43)CC2)c(F)cc2c(=O)c(C(=O)O)cn(C3CC3)c12 | 2.5 (≈ 1.56 µg/mL) | 1.02 (≈ 0.638 µg/mL) | 57 | – | –
26 | COc1c(N2CCN(CN3C(=O)/C(=N\NC(N)=O)c4cc(F)ccc43)CC2)c(F)cc2c(=O)c(C(=O)O)cn(C3CC3)c12 | 2.62 (≈ 1.56 µg/mL) | 0.13 (≈ 0.0774 µg/mL) | 168 | 1.6 | –
27 | CO/N=C1\C(=O)N(CCN2CCN(c3c(F)cc4c(=O)c(C(=O)O)cn(C5CC5)c4c3OC)CC2)c2ccc(F)cc21 | 2.68 (≈ 1.56 µg/mL) | 1.1 (≈ 0.64 µg/mL) | 12.8 | – | –
